Legend:
[1] = test system: A375 cells; assay: A375 cell proliferation assay (1), resazurin, 96-well; format: cell-based; details: Homo sapiens, A-375, inhibition of cell proliferation
Method in brief: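 Viability was read by resazurin fluorescence at 540 nm excitation and 600 nm emission, using a 440 μM solution added for 5–6 h at the end of culture. IC50 came from the curve fit.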

[2] = biological target: T1, A-Raf kinase (Homo sapiens, UniProt P10398, Y301D/Y302D); assay: Biochemical assay for A-Raf.1 (coupled pyruvate kinase/lactate dehydrogenase); details: read-out: ARAF.1 IC50
T1 construct: purchased Sigma
Method in brief: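 A-Raf (5.55 nM) phosphorylating 30.1 nM MEK with 1 mM ATP was monitored by pyruvate kinase/lactate dehydrogenase-coupled NADH oxidation at 340 nm for 6 h at 30° C, in pH 7.5 Tris buffer with 15 mM MgCl2, 1% DMSO. Rates from 4–5 h gave percent inhibition; IC50 by four-parameter fit.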

[3] = test system: Miapaca-2 cells; assay: MiaPaca-2 cell proliferation assay (1), resazurin, 96-well; format: cell-based; details: Homo sapiens, MIA PaCa-2, inhibition of cell proliferation
Description: MiaPaca-2 Cell Proliferation Assay (1)
Miapaca-2 cells (catalog #CRL-1420) are obtained from the American Type Culture Collect (ATTC, Manassas, VA). Briefly, cells were grown in DMEM supplemented with 10% characterized fetal bovine serum (Invitrogen, Carlsbad, CA), 2.5% New Zealand sourced horse serum and 1% Penicillin/Streptomycin/L-Glutamine at 37° C., 5% CO2, and 95% humidity. Cells are expanded until reaching 70-95% confluency at which point they are subcultured or harvested for assay use. A serial dilution of test compound is dispensed into a 96-well black clear bottom plate in triplicate. Three thousand cells are added per well in 200 μL complete growth medium in the 96-well plate. Plates are incubated for 67-72 hours at 37° C., 5% CO2, and 95% humidity. At the end of the incubation, 40 μL of a 440 μM solution of resazurin (Sigma, St. Louis, MO) in PBS is added to each well of the plate and plates are incubated for an additional 5-6 hours at 37° C., 5% CO2, and 95% humidity. Plates are read on a Synergy2 or equivalent reader (Biotek, Winooski VT) using an excitation of 540 nm and an emission of 600 nm. Data is analyzed using Prism software (GraphPad, San Diego, CA) to calculate IC50 values.

T1 sequence (P10398 with tags, fused parts or gaps Y301D/Y302D): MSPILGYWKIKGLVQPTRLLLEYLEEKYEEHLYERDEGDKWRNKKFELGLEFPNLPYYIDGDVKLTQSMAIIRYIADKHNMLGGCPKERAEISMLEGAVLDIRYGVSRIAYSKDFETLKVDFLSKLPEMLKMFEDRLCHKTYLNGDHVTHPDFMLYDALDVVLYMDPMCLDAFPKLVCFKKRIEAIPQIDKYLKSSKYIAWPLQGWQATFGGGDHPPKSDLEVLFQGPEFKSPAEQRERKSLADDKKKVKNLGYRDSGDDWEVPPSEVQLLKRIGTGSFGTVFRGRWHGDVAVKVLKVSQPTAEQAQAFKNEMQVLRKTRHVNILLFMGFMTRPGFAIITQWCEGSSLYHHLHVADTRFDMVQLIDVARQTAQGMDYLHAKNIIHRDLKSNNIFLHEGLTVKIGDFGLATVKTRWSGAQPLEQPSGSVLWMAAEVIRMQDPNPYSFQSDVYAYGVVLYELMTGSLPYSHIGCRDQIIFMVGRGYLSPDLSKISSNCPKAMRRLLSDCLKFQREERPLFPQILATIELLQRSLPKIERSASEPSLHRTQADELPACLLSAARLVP

Structure (SMILES)	IC50 [1] [nM]	IC50 [2] [nM]	IC50 [3] [nM]
Cc1ccc(NC(=O)Nc2cccc(C(F)(F)F)c2)cc1-c1cc(OCCO)nc(N2CCOCC2)c1 [Example 3, 1-(3-(2-(2-hydroxyethoxy)-6-morpholinopyridin-4-yl)-4-methylphenyl)-3-(3-(trifluoromethyl)phenyl)urea]	500 to 1000	100 to 500	1000 to 10000
Cc1ccc(NC(=O)NCCC(C)(C)C)cc1-c1cc(N2CCOCC2)nc(N2CCOCC2)c1 [Example 4]	500 to 1000	> 1000	1000 to 10000
COC(=O)Nc1cc(-c2cc(-c3cc(NC(=O)NC[C@H]4CCO4)c(F)cc3C)cc(OCCO)n2)ccn1 [Example 96]	1000 to 10000	> 1000	
COC1(CCNC(=O)Nc2cc(-c3ccnc(-c4ccnc(NC(=O)C5CC5)c4)n3)c(C)cc2F)CC1 [Example 117]	1000 to 10000	100 to 500	1000 to 10000
Cc1ncc(NC(=O)NCCC2(C)CC2)cc1-c1ccnc(-c2ccnc(NC(=O)C3CC3)c2)c1 [Example 118]	1000 to 10000	> 1000	1000 to 10000
COC(C)(C)CCNC(=O)Nc1cnc(C)c(-c2cc(-c3ccnc(NC(=O)C4CC4)c3)cnn2)c1 [Example 121]	1000 to 10000	> 1000	1000 to 10000
COC(=O)Nc1nccc(-c2cc(OCCO)cc(-c3cc(NC(=O)NCCC4(C)CC4)c(F)cc3C)c2)n1 [Example 122]	500 to 1000	> 1000	1000 to 10000
CNC(=O)c1cc(-c2cnnc(-c3cc(NC(=O)NCCC(C)(C)OC)c(F)cc3C)c2)ccn1 [Example 123]	1000 to 10000	> 1000	1000 to 10000
CCC(C)CCNC(=O)Nc1cnc(C)c(-c2ccnc(-c3ccnc(NC(=O)C4CC4)c3)c2)c1 (centres unmarked) [Example 124]	1000 to 10000	> 1000	
COC(=O)Nc1cc(-c2cc(-c3cc(NC(=O)NCCN4CCC4)c(F)cc3C)cc(OCCO)n2)ccn1 [Example 125]	1000 to 10000	> 1000	
Cc1ncc(NC(=O)NC2CC(C)(C)C2)cc1-c1cc(OCCO)nc(-c2ccnc(NC(=O)C3CC3)c2)c1 [Example 126]	100 to 500	500 to 1000	
Cc1cc(F)c(NC(=O)NCCC(C)(C)F)cc1-c1cccc(-c2cc(NC(=O)C3CC3)ncn2)c1 [Example 127]	1000 to 10000	100 to 500	
Cc1cc(F)c(NC(=O)NCCC(C)(C)F)cc1-c1ccnc(-c2ccnc(NC(=O)C3CC3)c2)n1 [Example 128]	1000 to 10000	100 to 500	
COC(=O)Nc1cc(-c2nccc(-c3cc(NC(=O)NCCC(C)(C)OC)c(F)cc3C)n2)ccn1 [Example 129]	1000 to 10000	> 1000	
Cc1ncc(NC(=O)NCCC(C)(C)F)cc1-c1nccc(-c2ccnc(NC(=O)C3CC3)c2)n1 [Example 130]	1000 to 10000	> 1000	
Cc1cc(F)c(NC(=O)NCCC(C)(C)C)cc1-c1cc(-c2ccnc(NC(=O)C3CC3)c2)cnn1 [Example 131]	≤ 100	100 to 500	1000 to 10000
CNC(=O)c1cc(-c2cnnc(-c3cc(NC(=O)NCCC(C)(C)F)c(F)cc3C)c2)ccn1 [Example 132]	1000 to 10000	> 1000	1000 to 10000
Cc1ncc(NC(=O)NCCC2(C)CC2)cc1-c1cc(OCCO)nc(-c2ccnc(NC(=O)C3CC3)c2)n1 [Example 133]	500 to 1000	500 to 1000	1000 to 10000
Cc1cc(F)c(NC(=O)NCCC2(C)CC2)cc1-c1ccnc(-c2ccnc(NC(=O)C3CC3)c2)c1 [Example 134]	1000 to 10000	500 to 1000	
COC(=O)Nc1cc(-c2nccc(-c3cc(NC(=O)NCCC4(C)CC4)cnc3C)n2)ccn1 [Example 135]	1000 to 10000	> 1000	
Cc1ncc(NC(=O)NCCC(C)(C)F)cc1-c1ccnc(-c2ccnc(NC(=O)C3CC3)c2)n1 [Example 136]	1000 to 10000	> 1000	
COC1(CCNC(=O)Nc2cnc(C)c(-c3ccnc(-c4ccnc(NC(=O)C5CC5)c4)n3)c2)CC1 [Example 137]	1000 to 10000	> 1000	
COC(=O)Nc1cc(-c2cccc(-c3cc(NC(=O)NCCC4(OC)CC4)cnc3C)c2)ncn1 [Example 138]	1000 to 10000	> 1000	
Cc1cc(F)c(NC(=O)NCCC(C)(C)F)cc1-c1cc(-c2ccnc(NC(=O)C3CC3)c2)cnn1 [Example 139]	1000 to 10000	> 1000	1000 to 10000
COC(=O)Nc1cc(-c2cnnc(-c3cc(NC(=O)NCCC(C)(C)OC)c(F)cc3C)c2)ccn1 [Example 140]	1000 to 10000	> 1000	1000 to 10000

Structure (SMILES)	IC50 [1] [nM]	IC50 [2] [nM]	IC50 [3] [nM]
COC(=O)Nc1cc(-c2cnnc(-c3cc(NC(=O)NCCC(C)(C)F)c(F)cc3C)c2)ccn1 [Example 141]	1000 to 10000	> 1000	1000 to 10000
COC(C)(C)CCNC(=O)Nc1cc(-c2cc(-c3ccnc(NC(=O)C4CC4)c3)cnn2)c(C)cc1F [Example 142]	1000 to 10000	> 1000	1000 to 10000
COC(=O)Nc1cc(-c2nccc(-c3cc(NC(=O)NCCC4(OC)CC4)cnc3C)n2)ccn1 [Example 143]	1000 to 10000	> 1000	1000 to 10000
COC(=O)Nc1cc(-c2cc(-c3cc(NC(=O)NCCC4(OC)CC4)c(F)cc3C)ccn2)ccn1 [Example 145]	1000 to 10000	> 1000	1000 to 10000
COC(=O)Nc1cc(-c2nccc(-c3cc(NC(=O)NCCC4(OC)CC4)c(F)cc3C)n2)ccn1 [Example 146]	1000 to 10000	> 1000	1000 to 10000
COC(=O)Nc1cc(-c2nccc(-c3cc(NC(=O)NCCC(C)(C)F)c(F)cc3C)n2)ccn1 [Example 147]	1000 to 10000	> 1000	1000 to 10000
COC[C@@H]1CCN(C(=O)Nc2cc(-c3cc(-c4ccnc(NC(=O)OC)c4)cnn3)c(C)cc2F)C1 [Example 149]	1000 to 10000	> 1000	
COC(=O)Nc1cc(-c2cc(-c3cc(NC(=O)NCCC4(C)CC4)cnc3C)cc(OCCO)n2)ccn1 [Example 151]	1000 to 10000	> 1000	
COC[C@H]1CCN(C(=O)Nc2cnc(C)c(-c3cc(OCCO)nc(-c4ccnc(NC(=O)OC)c4)c3)c2)C1 [Example 152]	1000 to 10000	> 1000	
COC(=O)Nc1cc(-c2cnnc(-c3cc(NC(=O)NCCC(C)(C)OC)cnc3C)c2)ccn1 [Example 153]	1000 to 10000	> 1000	
CNC(=O)c1cc(-c2cnnc(-c3cc(NC(=O)NCCC(C)(C)OC)cnc3C)c2)ccn1 [Example 154]	1000 to 10000	> 1000	
COC(=O)Nc1cc(-c2cc(-c3cc(NC(=O)NCCC4COC4)c(F)cc3C)cc(OCCO)n2)ccn1 [Example 155]	1000 to 10000	> 1000	
COC(=O)Nc1cc(-c2cc(-c3cc(NC(=O)N[C@H]4C[C@](C)(F)C4)cnc3C)cc(OCCO)n2)ccn1 [Example 157]	1000 to 10000	> 1000	
Cc1cc(F)c(NC(=O)NCCC(C)(C)F)cc1-c1ccnc(-c2ccnc(NC(=O)C3CC3)c2)c1 [Example 159]	1000 to 10000	500 to 1000	
COC[C@@H]1CCN(C(=O)Nc2cnc(C)c(-c3cc(OCCO)nc(-c4ccnc(NC(=O)OC)c4)c3)c2)C1 [Example 160]	1000 to 10000	> 1000	
COC(C)(C)CCNC(=O)Nc1cc(-c2ccnc(-c3ccnc(NC(=O)C4CC4)c3)c2)c(F)cc1F [Example 162]	1000 to 10000	> 1000	
COC(=O)Nc1cc(-c2cc(-c3cc(NC(=O)NCCC(C)(C)OC)c(F)cc3F)ccn2)ccn1 [Example 163]	1000 to 10000	> 1000	
CNC(=O)c1cc(-c2cc(-c3cc(NC(=O)NCCC4(C)CC4)c(F)cc3C)cc(OCCO)n2)ccn1 [Example 164]	≤ 100	> 1000	
COC(=O)Nc1cc(-c2cc(-c3cc(NC(=O)N4CCC(C)(C)CC4)cnc3C)cc(OCCO)n2)ccn1 [Example 166]	1000 to 10000	> 1000	
Cc1cc(F)c(NC(=O)NC2CC(C)(C)C2)cc1-c1cc(OCCO)nc(-c2ccnc(NC(=O)C3CC3)c2)n1 [Example 167]	≤ 100	500 to 1000	
Cc1cc(F)c(NC(=O)NCCC2(C)CC2)cc1-c1cnnc(-c2ccnc(NC(=O)C3CC3)c2)c1 [Example 168]	100 to 500	500 to 1000	
Cc1ncc(NC(=O)NCCC2(C)CC2)cc1-c1ccnc(-c2ccnc(NC(=O)C3(C#N)CC3)c2)c1 [Example 169]	1000 to 10000	> 1000	
COC(=O)Nc1cc(-c2ccnc(-c3cc(NC(=O)NCCC(C)(C)OC)c(F)cc3C)n2)ccn1 [Example 171]	1000 to 10000	> 1000	
Cc1ncc(NC(=O)NCCN2CCC2)cc1-c1cc(OCCO)nc(-c2ccnc(NC(=O)C3CC3)c2)c1 [Example 172]	1000 to 10000	> 1000	
